Source: ChEMBL document CHEMBL1155237, “Selective inhibitors of the mutant B-Raf pathway: discovery of a potent and orally bioavailable aminoisoquinoline” (J Med Chem, 2009)

Columns and labels:
[1] = molecular target: Serine/threonine-protein kinase PAK 4 (Homo sapiens) (UniProt O96013); assay: Inhibition of PAK4 assessed as enzyme activity at 1 uM relative to untreated control; design: scale not given: the % may be the effect or the level left
[2] = molecular target: RAC-alpha serine/threonine-protein kinase (Homo sapiens) (UniProt P31749); assay: Inhibition of AKT1 assessed as enzyme activity at 1 uM relative to untreated control; design: scale not given: the % may be the effect or the level left
[3] = molecular target: SRSF protein kinase 1 (Homo sapiens) (UniProt Q96SB4); assay: Inhibition of SRPK1 assessed as enzyme activity at 1 uM relative to untreated control; design: scale not given: the % may be the effect or the level left
[4] = molecular target: Myosin light chain kinase 2, skeletal/cardiac muscle (Homo sapiens) (UniProt Q9H1R3); assay: Inhibition of MYLK2 assessed as enzyme activity at 1 uM relative to untreated control; design: scale not given: the % may be the effect or the level left
[5] = system: Epidermal growth factor receptor (Homo sapiens), P00533 [UNDEFINED MUTATION]; assay: Inhibition of EGFR L747-E749del A750P assessed as enzyme activity at 1 uM relative to untreated control; format: protein assay; design: scale not given: the % may be the effect or the level left
[6] = molecular target: MAP kinase-activated protein kinase 5 (Homo sapiens) (UniProt Q8IW41); assay: Inhibition of MAPKAPK5 assessed as enzyme activity at 1 uM relative to untreated control; design: scale not given: the % may be the effect or the level left
[7] = system: eIF-2-alpha kinase GCN2 (Homo sapiens), Q9P2K8 [S808G]; assay: Inhibition of GCN2 kinase domain-2 S808G mutant assessed as enzyme activity at 1 uM relative to untreated control; design: scale not given: the % may be the effect or the level left
[8] = molecular target: Epithelial discoidin domain-containing receptor 1 (Homo sapiens) (UniProt Q08345); assay: Inhibition of DDR1 dyscoidin domain assessed as enzyme activity at 1 uM relative to untreated control; design: scale not given: the % may be the effect or the level left
[9] = molecular target: Serine/threonine-protein kinase 32C (Homo sapiens) (UniProt Q86UX6); assay: Inhibition of YANK3 assessed as enzyme activity at 1 uM relative to untreated control; design: scale not given: the % may be the effect or the level left
[10] = system: Proto-oncogene tyrosine-protein kinase receptor Ret (Homo sapiens), P07949 [V804L]; assay: Inhibition of RET V804L mutant assessed as enzyme activity at 1 uM relative to untreated control; design: scale not given: the % may be the effect or the level left
[11] = molecular target: Serine/threonine-protein kinase RIO2 (Homo sapiens) (UniProt Q9BVS4); assay: Inhibition of RIOK2 assessed as enzyme activity at 1 uM relative to untreated control; design: scale not given: the % may be the effect or the level left
[12] = molecular target: Ephrin type-B receptor 2 (Homo sapiens) (UniProt P29323); assay: Inhibition of EPHB2 assessed as enzyme activity at 1 uM relative to untreated control; design: scale not given: the % may be the effect or the level left
[13] = molecular target: Protein kinase C eta type (Homo sapiens) (UniProt P24723); assay: Inhibition of PRKCH assessed as enzyme activity at 1 uM relative to untreated control; design: scale not given: the % may be the effect or the level left
[14] = molecular target: Death-associated protein kinase 1 (Homo sapiens) (UniProt P53355); assay: Inhibition of DAPK1 assessed as enzyme activity at 1 uM relative to untreated control; design: scale not given: the % may be the effect or the level left
[15] = molecular target: Bone morphogenetic protein receptor type-1A (Homo sapiens) (UniProt P36894); assay: Inhibition of BMPR1A assessed as enzyme activity at 1 uM relative to untreated control; design: scale not given: the % may be the effect or the level left
[16] = molecular target: Tyrosine-protein kinase Srms (Homo sapiens) (UniProt Q9H3Y6); assay: Inhibition of SRMS assessed as enzyme activity at 1 uM relative to untreated control; design: scale not given: the % may be the effect or the level left
[17] = molecular target: Receptor-interacting serine/threonine-protein kinase 2 (Homo sapiens) (UniProt O43353); assay: Inhibition of RIPK2 assessed as enzyme activity at 1 uM relative to untreated control; design: scale not given: the % may be the effect or the level left
[18] = Volume of distribution at steady state in CD1 mouse; format: ADME, organism-based; settings: in vivo, read-out: Vdss
[19] = molecular target: Phosphatidylinositol 4-phosphate 3-kinase C2 domain-containing subunit beta (Homo sapiens) (UniProt O00750); assay: Inhibition of PIK3C2B assessed as enzyme activity at 1 uM relative to untreated control; design: scale not given: the % may be the effect or the level left
[20] = molecular target: Cyclin-dependent kinase 11B (Homo sapiens) (UniProt P21127); assay: Inhibition of CDC2L1 assessed as enzyme activity at 1 uM relative to untreated control; design: scale not given: the % may be the effect or the level left
[21] = molecular target: Serine/threonine-protein kinase Chk1 (Homo sapiens) (UniProt O14757); assay: Inhibition of CHEK1 assessed as enzyme activity at 1 uM relative to untreated control; design: scale not given: the % may be the effect or the level left
[22] = molecular target: Tyrosine-protein kinase JAK3 (Homo sapiens) (UniProt P52333); assay: Inhibition of JAK3 kinase domain 2 assessed as enzyme activity at 1 uM relative to untreated control; design: scale not given: the % may be the effect or the level left
[23] = molecular target: Ephrin type-A receptor 2 (Homo sapiens) (UniProt P29317); assay: Inhibition of EPHA2 assessed as enzyme activity at 1 uM relative to untreated control; design: scale not given: the % may be the effect or the level left
[24] = molecular target: Serine/threonine-protein kinase 32B (Homo sapiens) (UniProt Q9NY57); assay: Inhibition of YANK2 assessed as enzyme activity at 1 uM relative to untreated control; design: scale not given: the % may be the effect or the level left
[25] = molecular target: Ephrin type-A receptor 7 (Homo sapiens) (UniProt Q15375); assay: Inhibition of EPHA7 assessed as enzyme activity at 1 uM relative to untreated control; design: scale not given: the % may be the effect or the level left
[26] = molecular target: 3-phosphoinositide-dependent protein kinase 1 (Homo sapiens) (UniProt O15530); assay: Inhibition of PDPK1 assessed as enzyme activity at 1 uM relative to untreated control; design: scale not given: the % may be the effect or the level left
[27] = molecular target: Mitogen-activated protein kinase kinase kinase kinase 4 (Homo sapiens) (UniProt O95819); assay: Inhibition of MAP4K4 assessed as enzyme activity at 1 uM relative to untreated control; design: scale not given: the % may be the effect or the level left
[28] = molecular target: Serine/threonine-protein kinase D1 (Homo sapiens) (UniProt Q15139); assay: Inhibition of PRKD1 assessed as enzyme activity at 1 uM relative to untreated control; design: scale not given: the % may be the effect or the level left
[29] = molecular target: Cyclin-dependent kinase 5 (Homo sapiens) (UniProt Q00535); assay: Inhibition of CDK5 assessed as enzyme activity at 1 uM relative to untreated control; design: scale not given: the % may be the effect or the level left
[30] = molecular target: Serine/threonine-protein kinase SIK1 (Homo sapiens) (UniProt P57059); assay: Inhibition of SNF1LK assessed as enzyme activity at 1 uM relative to untreated control; design: scale not given: the % may be the effect or the level left
[31] = molecular target: Serine/threonine-protein kinase PAK 5 (Homo sapiens) (UniProt Q9P286); assay: Inhibition of PAK7/PAK5 assessed as enzyme activity at 1 uM relative to untreated control; design: scale not given: the % may be the effect or the level left
[32] = molecular target: Calcium/calmodulin-dependent protein kinase type II subunit delta (Homo sapiens) (UniProt Q13557); assay: Inhibition of CAMK2D assessed as enzyme activity at 1 uM relative to untreated control; design: scale not given: the % may be the effect or the level left
[33] = molecular target: Serine/threonine-protein kinase 38-like (Homo sapiens) (UniProt Q9Y2H1); assay: Inhibition of NDR2 assessed as enzyme activity at 1 uM relative to untreated control; design: scale not given: the % may be the effect or the level left
[34] = system: Epidermal growth factor receptor (Homo sapiens), P00533 [G719C]; assay: Inhibition of EGFR G719C mutant assessed as enzyme activity at 1 uM relative to untreated control; format: protein assay; design: scale not given: the % may be the effect or the level left
[35] = molecular target: Hepatocyte growth factor receptor (Homo sapiens) (UniProt P08581); assay: Inhibition of MET assessed as enzyme activity at 1 uM relative to untreated control; design: scale not given: the % may be the effect or the level left
[36] = molecular target: Macrophage colony-stimulating factor 1 receptor (Homo sapiens) (UniProt P07333); assay: Inhibition of CSF1R assessed as enzyme activity at 1 uM relative to untreated control; design: scale not given: the % may be the effect or the level left
[37] = molecular target: Activin receptor type-1 (Homo sapiens) (UniProt Q04771); assay: Inhibition of ACVR1 assessed as enzyme activity at 1 uM relative to untreated control; design: scale not given: the % may be the effect or the level left
[38] = Clearance in CD1 mouse; format: ADME, organism-based; settings: in vivo

Chain of Serine/threonine-protein kinase PAK 4 (Homo sapiens) (O96013 whole entry, looked up): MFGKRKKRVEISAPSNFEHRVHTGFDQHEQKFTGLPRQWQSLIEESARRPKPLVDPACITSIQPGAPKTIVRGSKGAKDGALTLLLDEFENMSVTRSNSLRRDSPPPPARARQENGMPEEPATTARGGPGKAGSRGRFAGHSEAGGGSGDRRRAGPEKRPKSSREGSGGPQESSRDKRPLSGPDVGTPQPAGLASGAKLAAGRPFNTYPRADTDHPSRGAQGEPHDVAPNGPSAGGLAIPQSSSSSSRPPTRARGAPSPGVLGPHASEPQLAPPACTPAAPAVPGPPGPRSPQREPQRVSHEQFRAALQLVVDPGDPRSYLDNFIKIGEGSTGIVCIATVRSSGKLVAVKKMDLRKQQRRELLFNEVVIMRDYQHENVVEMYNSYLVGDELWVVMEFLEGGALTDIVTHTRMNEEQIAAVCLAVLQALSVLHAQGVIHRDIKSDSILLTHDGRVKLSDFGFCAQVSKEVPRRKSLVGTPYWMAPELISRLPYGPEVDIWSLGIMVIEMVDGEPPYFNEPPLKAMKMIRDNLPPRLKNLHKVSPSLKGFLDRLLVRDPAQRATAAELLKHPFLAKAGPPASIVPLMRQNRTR
Chain of RAC-alpha serine/threonine-protein kinase (Homo sapiens) (P31749 whole entry): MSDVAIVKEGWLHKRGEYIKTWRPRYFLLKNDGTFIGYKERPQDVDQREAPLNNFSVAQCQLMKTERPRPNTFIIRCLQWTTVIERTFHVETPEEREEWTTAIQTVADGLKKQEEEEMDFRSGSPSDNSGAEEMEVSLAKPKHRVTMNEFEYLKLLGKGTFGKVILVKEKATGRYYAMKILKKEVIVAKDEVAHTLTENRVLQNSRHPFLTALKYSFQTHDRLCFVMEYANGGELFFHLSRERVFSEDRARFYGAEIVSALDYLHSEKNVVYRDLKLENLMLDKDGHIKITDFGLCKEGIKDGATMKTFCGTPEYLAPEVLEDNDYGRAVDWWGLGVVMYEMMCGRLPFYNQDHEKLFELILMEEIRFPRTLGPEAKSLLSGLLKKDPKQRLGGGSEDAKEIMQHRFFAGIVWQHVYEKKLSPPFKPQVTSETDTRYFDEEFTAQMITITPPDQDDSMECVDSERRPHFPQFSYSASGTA
Chain of Epithelial discoidin domain-containing receptor 1 (Homo sapiens) (Q08345 whole entry, the tested form may be a part): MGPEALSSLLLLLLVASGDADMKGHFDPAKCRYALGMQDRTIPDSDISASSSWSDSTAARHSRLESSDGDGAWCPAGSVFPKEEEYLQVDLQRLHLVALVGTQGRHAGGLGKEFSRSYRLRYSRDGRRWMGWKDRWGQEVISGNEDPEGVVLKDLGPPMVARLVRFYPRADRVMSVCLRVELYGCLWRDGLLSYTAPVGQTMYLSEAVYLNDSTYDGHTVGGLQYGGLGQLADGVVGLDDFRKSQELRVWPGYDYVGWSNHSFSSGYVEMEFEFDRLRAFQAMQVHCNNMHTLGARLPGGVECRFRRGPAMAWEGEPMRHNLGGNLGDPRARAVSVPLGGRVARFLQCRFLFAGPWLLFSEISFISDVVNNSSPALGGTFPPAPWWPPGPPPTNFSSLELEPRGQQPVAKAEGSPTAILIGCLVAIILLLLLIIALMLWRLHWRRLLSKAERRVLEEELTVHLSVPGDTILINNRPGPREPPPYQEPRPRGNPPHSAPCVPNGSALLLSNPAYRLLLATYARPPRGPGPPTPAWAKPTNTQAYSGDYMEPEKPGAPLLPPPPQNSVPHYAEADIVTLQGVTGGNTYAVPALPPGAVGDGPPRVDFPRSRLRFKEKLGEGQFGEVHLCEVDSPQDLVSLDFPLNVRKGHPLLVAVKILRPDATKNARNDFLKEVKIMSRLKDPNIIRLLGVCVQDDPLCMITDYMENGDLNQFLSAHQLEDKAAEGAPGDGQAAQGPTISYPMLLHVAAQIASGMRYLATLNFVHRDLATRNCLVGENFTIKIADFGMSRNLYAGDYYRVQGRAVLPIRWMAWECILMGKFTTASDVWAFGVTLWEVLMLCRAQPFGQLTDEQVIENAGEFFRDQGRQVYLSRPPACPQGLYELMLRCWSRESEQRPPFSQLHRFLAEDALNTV
Chain of Phosphatidylinositol 4-phosphate 3-kinase C2 domain-containing subunit beta (Homo sapiens) (O00750 whole entry, the tested form may be a part): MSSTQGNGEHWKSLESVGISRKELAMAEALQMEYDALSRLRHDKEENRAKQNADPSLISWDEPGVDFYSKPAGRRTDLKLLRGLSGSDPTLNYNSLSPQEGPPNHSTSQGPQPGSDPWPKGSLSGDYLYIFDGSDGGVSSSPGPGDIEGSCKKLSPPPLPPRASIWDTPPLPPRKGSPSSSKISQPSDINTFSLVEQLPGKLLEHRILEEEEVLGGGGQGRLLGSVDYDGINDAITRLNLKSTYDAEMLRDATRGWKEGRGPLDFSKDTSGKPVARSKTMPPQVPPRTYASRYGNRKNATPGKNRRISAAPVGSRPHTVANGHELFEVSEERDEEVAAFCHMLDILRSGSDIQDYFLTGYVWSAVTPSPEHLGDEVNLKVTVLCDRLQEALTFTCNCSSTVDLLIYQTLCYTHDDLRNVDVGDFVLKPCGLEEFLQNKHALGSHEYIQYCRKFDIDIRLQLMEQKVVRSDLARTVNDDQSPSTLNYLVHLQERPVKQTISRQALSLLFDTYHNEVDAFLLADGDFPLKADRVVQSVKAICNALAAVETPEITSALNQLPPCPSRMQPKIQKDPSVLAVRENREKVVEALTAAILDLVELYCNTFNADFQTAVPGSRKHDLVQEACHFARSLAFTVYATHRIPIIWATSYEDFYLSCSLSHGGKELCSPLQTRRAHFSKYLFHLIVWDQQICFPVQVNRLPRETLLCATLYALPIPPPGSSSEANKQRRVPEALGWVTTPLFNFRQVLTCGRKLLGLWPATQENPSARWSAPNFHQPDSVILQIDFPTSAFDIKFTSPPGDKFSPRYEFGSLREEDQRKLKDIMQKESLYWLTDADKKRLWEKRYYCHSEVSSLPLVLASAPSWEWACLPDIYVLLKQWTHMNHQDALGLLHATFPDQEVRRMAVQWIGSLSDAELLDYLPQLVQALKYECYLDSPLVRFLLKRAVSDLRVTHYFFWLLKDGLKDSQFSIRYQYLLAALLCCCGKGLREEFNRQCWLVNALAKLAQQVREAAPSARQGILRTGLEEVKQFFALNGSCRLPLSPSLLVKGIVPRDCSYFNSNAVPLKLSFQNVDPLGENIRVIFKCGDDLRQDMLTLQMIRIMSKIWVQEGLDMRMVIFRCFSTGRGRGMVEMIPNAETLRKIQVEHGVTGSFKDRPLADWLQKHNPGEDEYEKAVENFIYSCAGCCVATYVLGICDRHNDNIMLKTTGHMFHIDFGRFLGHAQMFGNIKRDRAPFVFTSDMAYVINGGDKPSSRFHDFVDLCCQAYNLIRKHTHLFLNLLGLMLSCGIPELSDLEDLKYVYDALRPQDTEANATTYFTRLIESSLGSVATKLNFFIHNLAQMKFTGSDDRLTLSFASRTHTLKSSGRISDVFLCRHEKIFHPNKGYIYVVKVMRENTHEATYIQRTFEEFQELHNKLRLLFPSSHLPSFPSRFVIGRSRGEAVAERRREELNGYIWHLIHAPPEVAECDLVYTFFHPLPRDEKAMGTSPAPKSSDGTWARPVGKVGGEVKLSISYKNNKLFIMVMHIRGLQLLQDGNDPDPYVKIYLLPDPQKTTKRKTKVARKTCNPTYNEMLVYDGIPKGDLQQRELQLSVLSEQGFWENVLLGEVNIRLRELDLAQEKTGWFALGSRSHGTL
Chain of Activin receptor type-1 (Homo sapiens) (Q04771 whole entry): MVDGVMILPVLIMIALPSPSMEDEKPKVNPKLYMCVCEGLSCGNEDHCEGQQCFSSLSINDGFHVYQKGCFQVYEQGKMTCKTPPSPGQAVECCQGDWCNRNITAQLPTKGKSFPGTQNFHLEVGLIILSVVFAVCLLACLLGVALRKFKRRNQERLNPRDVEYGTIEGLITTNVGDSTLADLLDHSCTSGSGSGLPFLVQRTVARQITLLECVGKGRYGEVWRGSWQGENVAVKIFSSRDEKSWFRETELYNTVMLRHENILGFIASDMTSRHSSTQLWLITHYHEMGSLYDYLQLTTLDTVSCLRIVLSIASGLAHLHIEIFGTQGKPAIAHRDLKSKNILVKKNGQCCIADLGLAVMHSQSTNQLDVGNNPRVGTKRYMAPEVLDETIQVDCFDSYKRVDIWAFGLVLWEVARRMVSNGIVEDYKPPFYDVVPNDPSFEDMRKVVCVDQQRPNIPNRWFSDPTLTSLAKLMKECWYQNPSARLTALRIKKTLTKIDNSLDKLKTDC
Chain of Serine/threonine-protein kinase SIK1 (Homo sapiens) (P57059 whole entry): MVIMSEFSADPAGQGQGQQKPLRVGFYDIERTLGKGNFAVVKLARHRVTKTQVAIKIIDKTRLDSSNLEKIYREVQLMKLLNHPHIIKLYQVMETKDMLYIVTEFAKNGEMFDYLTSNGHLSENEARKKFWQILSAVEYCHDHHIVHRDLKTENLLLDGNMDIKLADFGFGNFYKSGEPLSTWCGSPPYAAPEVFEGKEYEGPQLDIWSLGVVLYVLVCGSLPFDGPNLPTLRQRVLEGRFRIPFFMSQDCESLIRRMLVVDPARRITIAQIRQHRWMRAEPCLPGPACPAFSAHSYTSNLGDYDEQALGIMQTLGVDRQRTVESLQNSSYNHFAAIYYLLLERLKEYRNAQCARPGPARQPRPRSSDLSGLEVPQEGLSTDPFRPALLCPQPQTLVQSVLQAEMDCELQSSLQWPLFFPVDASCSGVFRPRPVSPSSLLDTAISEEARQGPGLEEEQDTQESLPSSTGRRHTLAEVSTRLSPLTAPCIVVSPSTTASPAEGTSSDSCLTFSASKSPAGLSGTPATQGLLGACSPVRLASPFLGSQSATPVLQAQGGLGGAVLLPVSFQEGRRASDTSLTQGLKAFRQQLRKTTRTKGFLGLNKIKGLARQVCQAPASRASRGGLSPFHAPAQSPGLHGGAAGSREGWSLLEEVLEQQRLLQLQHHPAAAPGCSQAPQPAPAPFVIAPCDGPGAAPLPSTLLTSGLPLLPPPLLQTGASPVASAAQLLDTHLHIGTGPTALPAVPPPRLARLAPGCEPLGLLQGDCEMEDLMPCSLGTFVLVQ

Cc1ccc2c(Nc3ccc(Cl)cc3)nccc2c1Nc1ncccc1-c1ncnc2[nH]cnc12.Cl.Cl.Cl
Activity [1]: 92% | Activity [2]: 100% | Activity [3]: 100% | Activity [4]: 100% | Activity [5]: 89% | Activity [6]: 64% | Activity [7]: 100% | Activity [8]: 0.1% | Activity [9]: 84% | Activity [10]: 100% | Activity [11]: 100% | Activity [12]: 6.1% | Activity [13]: 100% | Activity [14]: 90% | Activity [15]: 100% | Activity [16]: 100% | Activity [17]: 100% | Vd [18]: 1.1 L/kg | Activity [19]: 100% | Activity [20]: 42% | Activity [21]: 100% | Activity [22]: 100% | Activity [23]: 2.8% | Activity [24]: 95% | Activity [25]: 4.7% | Activity [26]: 100% | Activity [27]: 95% | Activity [28]: 100% | Activity [29]: 100% | Activity [30]: 75% | Activity [31]: 90% | Activity [32]: 79% | Activity [33]: 100% | Activity [34]: 92% | Activity [35]: 73% | Activity [36]: 0.25% | Activity [37]: 100% | clearance [38]: 3.17 mL/min
